This is an account of results in patent US20140213557A1, “Active Compound Combinations” (Bayer CropScience AG, priority 2005, published 2014).

Several values for one entry are separate records, joined by “and”; a condition that tells them apart may be missing. Identical values can stand only once.

In the test the test system is Phakopsora pachyrhizi. As to the kind of experiment: Phakopsora test (soya bean). Conditions: sprayed 1 day before inoculation, evaluation 11 days after inoculation. The format is in vivo. The method, then: The suitable active compound preparations used are commercial formulations which, if required, are diluted to the desired concentration prior to application.
Soya bean plants (cv. Miyagishirome) are cultivated in a plastic vessel having a diameter of 7.5 cm for 14 days, until they have reached the ⅔-leaf stage. The active compound preparations were, at the concentrations stated below, sprayed onto the test plants (6 ml for in each case 3 test vessels, the test solution contains 0.02% of Neoesterin as tackifier).
1 day after the application of the active compound preparation, the plants were sprayed with a urediniospore suspension (1×10^5 urediniospores/ml) of the rust pathogen Phakopsora pachyrhizi. The plants are then placed in a greenhouse at about 25° C. during the day and about 18° C. at night and a relative atmospheric humidity of 91.9%.
Evaluation is carried out 11 days after the inoculation by comparison of the infected areas of untreated and treated plants. 0% means an efficacy which corresponds to that of the control, whereas an efficacy of 100% means that no infection is observed.

With `O=C(O)CNCP(=O)(O)O` [(1-1) glyphosate, glyphosate], the “Efficacy in % found” value is, setting by setting: (application rate 0.5 ppm) 0%; (application rate 5 ppm) 0%.
With `CC(C)(C)C(O)(CCc1ccc(Cl)cc1)Cn1cncn1` (centres unmarked) [(3-17) tebuconazole, tebuconazole], where the note is “application rate 0.5 ppm”, the “Efficacy in % found” value is 60% and 50%.
Consider `CP(=O)(O)CCC(N)C(=O)O` (centres unmarked) [(1-2) glufosinate, glufosinate], for which the “Efficacy in % found” value is, setting by setting: (application rate 0.5 ppm) 0%; (application rate 5 ppm) 0%.
